Where two headings read alike, the source gives them in different places.
Experiments:
[1] = system: ceramide-activated protein kinase; assay: EGFR peptide phosphorylation by kinase in A-431 microsomal membranes / postnuclear supernatant; format: biochemical, human (A-431 epidermoid carcinoma cells)
Method: Kinetics of ^32 Pi incorporation into the EGFR peptide. […] The reaction was initiated by addition of 50 μl of [γ-^32 P]ATP (150 μM final concentration) and terminated by addition of 50 μl of 0.5 M ATP in 90% (vol/vol) formic acid. Samples were spotted on phosphocellulose paper, washed with 1 M acetic acid/4 mM pyrophosphate, and ^32 P incorporation was measured by liquid-scintillation counting, as described. A boiled protein blank was subtracted from each data value. The data (means) represent duplicate samples from one of two similar experiments. […]
Kinetics of ceramide-induced ^32 Pi incorporation into EGFR peptide. Peptide phosphorylation was done as described in FIG. 2 in the absence (.smallcircle.) or presence (.circle-solid.) of 0.5 μM C8 -ceramide. Phosphorylated peptide was resolved by HPLC. Values (means) represent data from three experiments.
Concentration-dependence of ceramide-induced ^32 Pi incorporation into EGFR peptide. Peptide phosphorylation reactions were done as described for FIG. 2, for 2 minutes, using various concentrations of ceramide (0.001-3 μM). Phosphorylated peptide was resolved by HPLC. Values (means) represent data from three experiments. […]
Phosphorylation was initiated at 22° C. by addition of 50 μl of [γ-^32 P] ATP (150 μM final concentration; 4000 dpm/pmol). For studies with lipid activators, ceramide and other lipids were dried under N2 and resuspended in the kinase assay buffer by bath sonication for 2 minutes at 37° C.
Phosphorylated peptide was quantified by two separate methods. For initial studies, samples were spotted on phosphocellulose paper, washed in 1 M acetic acid/4 mM pyrophosphate and subjected to liquid scintillation counting, according to methods well known to those skilled in the art. Values obtained from a boiled blank or a sample lacking peptide were subtracted from each determination. Alternatively, HPLC was done according to methods well known to those skilled in the art. For these studies, samples were first applied to a C18 Sep-Pak cartridge and eluted with 99.9% acetonitrile/0.1% trifluoroacetic acid. The eluates were lyophilized, resuspended in 6 M guanidine hydrochloride/200 mM Tris, pH 8.5 and applied to a C18 reverse-phase column (Dynamax, 4.6 mm i.d., Rainin, Woburn, Mass.). The peptide was eluted with a linear gradient (1% per minute) of acetonitrile at a flow rate of 1 ml/minute and was detected by measuring the Cerenkov radiation associated with 1-ml fractions.

[2] = system: ceramide-activated protein kinase; assay: Ceramide-activated protein kinase activity (EGFR peptide) in EL-4 cell fractions; settings: baseline, EL-4 membranes
Method: Effect of IL-1β on ceramide-activated protein kinase activity. […] Homogenates were centrifuged at 500×g for 5 minutes to remove nuclei and at 200,000×g for 30 minutes to prepare microsomal membranes. Membranes were resuspended into homogenizing buffer (2.2 μg membrane protein μl^-1). For assay of kinase activity, the reaction mixture contained 20 μl of microsomal membrane, 40 μl EGFR peptide (4 mg ml^-1 in 25 mM Hepes, pH 7.4) and 100 μl buffer (50 mM HEPES, pH 7.4, 20 mM MgCl2). Phosphorylation was initiated at 22° C. by addition of 40 μl [γ-^32 P] ATP (100 μM final concentration) and terminated at the indicated times by addition of 40 μl of 0.5 M ATP in 90% formic acid. Phosphorylated peptide was eluted from a C18 Sep pak cartridge (Millipore), lyophilized, and resolved by C18 reverse phase HPLC using a linear gradient of acetonitrile. […] All assays were performed under conditions determined as linear for time and enzyme concentration. Enzyme activity was determined from the percent conversion of substrate to product and the specific radioactivity of [γ-^32 P] ATP. […] Values (mean±range) represent duplicate determinations from two experiments.
Activity was measured by the transfer of ^32 P from the γ-position of ATP to EGFR peptide (AA 663-681 of the EGFR). The effect of IL-1β on kinase activity was determined using microsomal membranes derived from cells stimulated with IL-1β.

[3] = system: ceramide-activated protein kinase; settings: nuclei-free supernates, ref. [40], cited from earlier work
[4] = system: CAP kinase; assay: Phosphorylation of Raf-1 peptides by CAP kinase; format: biochemical, bovine (brain)
[5] = system: ceramide-activated protein kinase; assay: Ceramide-activated protein kinase activity toward MBP after HL-60 cell treatment; format: cell-based, human (HL-60 cells)
Method: Membrane proteins (200 μg) from treated and untreated cells were subjected to SDS-PAGE and kinase activity was renatured as above. Autophosphorylation was allowed to proceed for 10 min and the gel was washed for 20 min with four changes of 50 mM HEPES buffer, pH 7.4. Gel slices were then excised from regions corresponding to 100-110 KDa, crushed, and incubated for 1 h with 10μ MBP (5 mg ml^-1) and 40 μl kinase reaction mixture in the presence of [γ-^32 P]ATP (50 μM final concentration). Reactions were terminated by addition of 10 μl Laemmli buffer, boiling for 3 min, and centrifugation of gel particles. The supernates were subjected to electrophoresis and autoradiography.
Since prior studies correlated enhanced autophosphorylation of ceramide-activated protein kinase with increased kinase activity toward exogenous substrate, the effect of kinase activity toward MBP was examined after treatment of HL-60 cells with lipid A. For these studies, gel slices corresponding to ceramide-activated protein kinase were subjected to autophosphorylation for 10 min in buffer containing ATP (50 μM final concentration), and then were washed and incubated with MBP in a kinase reaction mixture containing [γ-^32 P]ATP [119]. After termination of reactions, samples were subjected electrophoresis and visualized by autoradiography. […] Enhancement of MBP phosphorylation was detectable at 0.5 min of lipid A treatment and maximal at 15 min.

[6] = system: ceramide-activated protein kinase; assay: CAP kinase activation in HL-60 cells (renaturation and autophosphorylation); format: cell-based, human (HL-60 cells)
Method: Stimulation of ceramide-activated protein (CAP) kinase by lipid A. On the day of an experiment, HL-60 cells were resuspended (1×10^6 cells ml^-1) into serum-free RPMI 1640 containing 5 μg ml^-1 insulin and transferrin. After 2 h, cells were stimulated with lipid A (Escherichia Coli) or diluent (DMSO, <0.01%). Ceramide-activated protein kinase contained within microsomal membranes was detected by renaturation and autophosphorylation. Briefly, membrane proteins (200 μg per lane) were separated by SDS-PAGE (10%), and the gel was washed with two changes of buffer (50 mM Tris, pH 7.4, 5 mM 2-mercaptoethanol) containing 20% 2-propanol at room temperature for 1 h, and once in buffer without 2-propanol for 1 h. Denaturation was accomplished by incubation of the gel in two changes of 6M guanidinium HCl in wash buffer for 1 h each. Renaturation was accomplished by incubation of the gel overnight at 4° C. in wash buffer containing 0.04% Tween-20. The gel was then equilibrated for 10 min at room temperature in kinase reaction mixture (25 mM HEPES, pH 7.4, 10 mM MgCl2, 0.5 mM EGTA and 5 mM NaF) and [γ-^32 p] ATP (50 μM final concentration; 1000 dpm pmol^-1) was added. Autophosphorylation was terminated by removal of the reaction mixture. The gel was washed with 6 changes of buffer (5% trichloroacetic acid, 1% sodium pyrophosphate) for 2 h and subjected to autoradiography. Top panel--Time course of lipid A activation. Bottom panel--Dose response at 5 minutes of lipid A stimulation. Autoradiograms represent one of three similar studies in both panels A and B.
On the day of an experiment, cells were resuspended (1×10^6 cells ml^-1) into serum-free RPMI 1640 containing 5 μg ml^-1 insulin and transferrin. After 2 h, cells were stimulated with lipid A or diluent (DMSO, <0.01% ). […] The postnuclear supernate was centrifuged at 200,000×g for 30 min and microsomal membranes were resuspended ([…]) into homogenizing buffer. Ceramide-activated protein kinase was detected by renaturation and autophosphorylation. Briefly, membrane proteins (200 μg per lane) were separated by SDS-PAGE (10%), and the gel was washed with two changes of buffer (50 mM Tris, pH 7.4, 5 mM 2-mercaptoethanol) containing 20% 2-propanol at room temperature for 1 h, and once in buffer without 2-propanol for 1 h. Denaturation was accomplished by incubation of the gel in two changes of 6M guanidinium HCl in wash buffer for 1 h each. Renaturation was accomplished by incubation of the gel overnight at 4° C. in wash buffer containing 0.04% Tween-20. The gel was then equilibrated for 10 min at room temperature in kinase reaction mixture (25 mM HEPES, pH 7.4, 10 mM MgCl2, 0.5 mM EGTA and 5 mM NaF) and [γ-^32 P] ATP (50 μM final concentration; 1000 dpm pmol^-1. Autophosphorylation was terminated by removal of the reaction mixture. The gel was washed with 6 changes of buffer (5% trichloracetic acid, 1% sodium pyrophosphate) for 2 h and subjected to autoradiography.
For studies involving activation of ceramide-activated protein kinase by LPS, HL-60 cells (13×10^6 ml^-1) were handled as above, and LPS (Salmonella typhosa, 50 ng ml^-1), recombinant LBP (1.7 μg ml^-1) or both LPS and LBP were added for the times indicated. Isolation of microsomal membranes and autophosphorylation of ceramide-activated protein kinase were performed as above.

## NH2 -Glu-Leu-Val-Glu-Pro-Leu-Thr-Pro-Ser-Gly-Glu-Ala-Pro-Asn-Gln-Ala-Leu-Leu-Arg-COOH (H-ELVEPLTPSGEAPNQALLR-OH) [EGFR peptide]
[1]; 5 minutes, Lineweaver-Burke
  apparent Km (EGFR peptide): 0.25 mg/mL
[1]; EGFR peptide phosphorylation
  apparent Vmax: 100-200 pmol.min^-1.mg of protein^-1
[2]
  Km (EGFR peptide): 0.15 mg/mL
  maximum reaction velocity: 12.5 pmol min^-1 mg^-1 of microsomal membrane protein
[3]
  Km (peptide): 0.25 mg/mL

## Nc1ncnc2c1ncn2[C@@H]1O[C@H](COP(=O)(O)OP(=O)(O)OP(=O)(O)O)[C@@H](O)[C@H]1O [ATP, adenosine triphosphate]
[1]; 5 minutes, Lineweaver-Burke, read-out: apparent Km (ATP)
  Km: 15 µM
[2]; read-out: Km (ATP)
  Km: 70 µM
[3]; read-out: Km (ATP)
  Km: 15 µM

## RQRSTSTPNVHMVSAALPVDSRMIE [AALP (SEQ ID NO: 6)]
[4]
  phosphorylation of Raf-1 peptide by CAP kinase: failed to phosphorylate

## lipid A
[5]; lipid A
  onset of enhanced MBP phosphorylation: 0.5 min
  time of maximal MBP phosphorylation: 15 min
[5]; lipid A-treated HL-60 cells
  enhancement of MBP phosphorylation: 5 fold
[6]; 500 nM lipid A, of control
  maximal activation of ceramide-activated protein kinase: 5 fold
[6]; early kinetics studies
  earliest detection of increased autophosphorylation: 30 s
[6]; lipid A
  concentration of maximal effect: 500 nM
  lowest effective concentration: 10 nM
[6]; lipid A 5 μM
  duration of enhanced autophosphorylation: 60 min
  enhancement of autophosphorylation detected at: 5 min
